From patent US6281363A, “Cyclic hydrazine derivatives” (Hoffmann-La Roche Inc., priority 1998, dated 2001)

System: LPS-induced TNF-α release
Experiment: inhibition of LPS-induced TNF-α release from THP1 cells (TNF-α by ELISA)
Type: cell-based
Details: Homo sapiens, THP-1, LPS 2 mg/ml, 0.5 hour preincubation with compound, 3 hours at 37° C. with LPS, read-out: IC50 (concentration of test compound which brings about 50% inhibition of LPS-induced TNF-α release)
Experimental: Aliquots (200 μl) of the cell suspension were plated out on 96 well culture plates and incubated for 0.5 hour at 37° C. prior to the addition of the test compounds. The latter were dissolved in dimethyl sulphoxide (DMSO) to a stock concentration of 1.2 mM which was diluted with phosphate buffered saline/10% DMSO solution to provide test compounds in final concentrations of 10^-9 to 10^-5 M, with each concentration being tested in duplicate. The cells were incubated with the test compounds for 0.5 hour at 37° C., LPS (bacterial lipopolysaccharide) was then added to a concentration of 2 mg/ml and incubation was continued for 3 hours at 37° C. in an atmosphere containing 5% CO2 and at 95% relative humidity. After centrifugation at 260 g for 10 minutes an aliquot of each supernatant was removed and the amount of TNF-α was estimated by ELISA (R & D Systems Europe Ltd., Abingdon, England).

| IC50 [nM] | Compound |
| --- | --- |
| 242 | CC(C)C[C@@H](C(=O)NN1C(=O)CNC1=O)[C@H](CCCC1CCCCC1)C(=O)NO [Compound C, 2(R)-[4-Cyclohexyl-1(S)-(hydroxycarbamoyl)butyl]-4-methyl-N-(2,5-dioxo-1-imidazolidinyl)valeramide] |
| 387 | CC(C)C[C@@H](C(=O)NN1C(=O)N[C@@H](CO)C1=O)[C@H](CCCc1ccccc1)C(=O)NO [Compound I, 2(R)-[1(S)-(Hydroxycarbamoyl)-4-phenylbutyl]-N-[4(S)-(hydroxymethyl)-2,5-dioxo-1-imidazolidinyl]-4-methylvaleramide] |
| 172 | CC(C)C[C@@H](C(=O)Nn1c(=O)[nH]c2ccsc2c1=O)[C@H](CCCc1ccccc1)C(=O)NO [Compound N, N-(1,2,3,4-Tetrahydro-2,4-dioxothieno[3,2-d]pyrimidin-3-yl)-2(R)-[1(S)-(hydroxycarbamoyl)-4-phenylbutyl]-4-methylvaleramide] |
| 147 | CC[C@H](C)[C@@H]1NC(=O)N(NC(=O)[C@H](CC(C)C)[C@H](CCCc2ccccc2)C(=O)NO)C1=O [Compound G] |
| 597 | CC(C)C[C@@H](C(=O)NN1C(=O)[C@H](C(C)C)NC1=S)[C@H](CCCc1ccccc1)C(=O)NO [Compound J, 2(R)-[1(S)-(Hydroxycarbamoyl)-4-phenylbutyl]-N-(4(S)-isopropyl-5-oxo-2-thioxo-1-imidazolidinyl)-4-methylvaleramide] |
| 234 | CSCC[C@@H]1NC(=O)N(NC(=O)[C@H](CC(C)C)[C@H](CCCc2ccccc2)C(=O)NO)C1=O [Compound H, 2(R)-[1(S)-(Hydroxycarbamoyl)-4-phenylbutyl]-4-methyl-N-[4(S)-[2-(methylthio)ethyl]-2,5-dioxo-1-imidazolidinyl]valeramide] |
| 280 | CC(C)C[C@@H](C(=O)NN1C(=O)CNC1=O)[C@H](C/C=C/c1ccccc1)C(=O)NO [Compound A, (E)-2(R)-[1(S)-(Hydroxycarbamoyl)-4-phenyl-3-butenyl]-4-methyl-N-(2,5-dioxo-1-imidazolidinyl)valeramide] |
| 177 | CC(C)C[C@@H](C(=O)Nn1c(=O)[nH]c2cscc2c1=O)[C@H](CCCc1ccccc1)C(=O)NO [Compound O, N-(1,2,3,4-Tetrahydro-2,4-dioxothieno[3,4-d]pyrimidin-3-yl)-2(R)-[1(S)-(hydroxycarbamoyl)-4-phenylbutyl]-4-methylvaleramide] |
| 389 | CC(C)C[C@@H](C(=O)NN1C(=O)NCCS1(=O)=O)[C@H](C/C=C/c1ccccc1)C(=O)NO [Compound D, (E)-N-(Tetrahydro-3-oxo-2H-1,2,4-thiadiazin-2-yl)-2(R)-[1(S)-(hydroxycarbamoyl)-4-phenyl-3-butenyl]-4-methylvaleramide S,S-dioxide] |
| 481 | CC(=O)N1CCC2(CC1)NC(=O)N(NC(=O)[C@H](CC(C)C)[C@H](CCCc1ccccc1)C(=O)NO)C2=O [Compound R, 1-(8-Acetyl-2,4-dioxo-1,3,8-triazaspiro[4. 5]decan-3-yl)-2(R)-[1(S)-(hydroxycarbamoyl)-4-phenylbutyl]-4-methylvaleramide] |
| 302 | CC(C)C[C@@H](C(=O)NN1C(=O)N[C@@H](CO)C1=O)[C@H](C/C=C/c1ccccc1)C(=O)NO [Compound L, (E)-2(R)-[1(S)-(Hydroxycarbamoyl)-4-phenyl-3-butenyl]-N-[4(S)-(hydroxymethyl)-2,5-dioxo-1-imidazolidinyl]-4-methylvaleramide] |
| 308 | CC(C)C[C@@H](C(=O)NN1C(=O)CNC1=O)[C@H](Cc1ccc(-c2ccccc2)cc1)C(=O)NO [Compound S, 2(R)-[2-(4-Biphenylyl)-1(S)-(hydroxycarbamoyl)ethyl]-N-(2,5-dioxo-1-imidazolidinyl)-4-methylvaleramide] |
| 162 | CC[C@H](C)[C@@H]1NC(=O)N(NC(=O)[C@H](CC(C)C)[C@H](C/C=C/c2ccccc2)C(=O)NO)C1=O [Compound K, (E)-2(R)-[1(S)-(Hydroxycarbamoyl)-4-phenyl-3-butenyl]-N-[4(S)-(1(S)-methylpropyl)-2,5-dioxo-1-imidazolidinyl]-4-methylvaleramide] |
| 156 | CC(C)C[C@@H](C(=O)NN1C(=O)N[C@@H](C(C)C)C1=O)[C@H](CCCc1ccccc1)C(=O)NO [Compound F, 2(R)-[1(S)-(Hydroxycarbamoyl)-4-phenylbutyl]-N-(4(S)-isopropyl-2,5-dioxo-1-imidazolidinyl)-4-methylvaleramide] |
| 620 | CC(C)C[C@@H](C(=O)NN1C(=O)NC2(CCN(C(=O)OCc3ccccc3)CC2)C1=O)[C@H](CCCc1ccccc1)C(=O)NO [Compound M, Benzyl 3-[2(R)-[1(S)-(hydroxycarbamoyl)-4-phenylbutyl]-4-methylvaleramido]-2,4-dioxo-1,3,8-triazaspiro[4,5]decane-8-carboxylate] |
| 234 | CC(C)C[C@@H](C(=O)NN1C(=O)CNC1=O)[C@H](CCCc1ccccc1)C(=O)NO [Compound Q, 2(R)-[1(S)-(Hydroxycarbamoyl)-4-phenylbutyl]-4-methyl-N-(2,5-dioxo-1-imidazolidinyl)valeramide] |
| 346 | COC[C@@H]1NC(=O)N(NC(=O)[C@H](CC(C)C)[C@H](CCCc2ccccc2)C(=O)NO)C1=O [Compound P] |
| 382 | CC(C)C[C@@H](C(=O)NN1C(=O)CCNC1=O)[C@H](C/C=C/c1ccccc1)C(=O)NO [Compound B, (E)-N-(Hexahydro-2,6-dioxo-1-pyrimidinyl)-2(R)-[1(S)-(hydroxycarbamoyl)-4-phenyl-3-butenyl]-4-methylvaleramide] |

| Compound | IC50 [nM] |
| --- | --- |
| CC(C)C[C@@H](C(=O)NN1C(=O)CNCC1=O)[C@H](CCCc1ccccc1)C(=O)NO [Compound E, 2(R)-[1(S)-(Hydroxycarbamoyl)-4-phenylbutyl]-4-methyl-N-(2,6-dioxo-1-piperazinyl)valeramide p-toluenesulphonate] | 1450 |
